# Assay results reported in patent publication US12390457B2, “Stable solutions of immunomodulatory imide compounds for parenteral use” (Starton Therapeutics, Inc., priority 2021, dated 2025).
# Where two headings read alike, the source gives them in different places.
# Legend:
# [1] = cited from earlier work
# [2] = Forced degradation of LLD solutions (acidic, basic, oxidative; 40° C.) by HPLC; type: physicochemical
# Experimental: The primary analytical method for analysis of drug substance in solution is a stability-indicating method, which identifies and quantitates various primary and degradative peaks of the API by HPLC.
# In the process of the analytical evaluation, forced degradation of the API in solution is performed to assess how identified chromatography peaks, primary and degradation/impurity are formed.
# [3] = cited from earlier work; remark: listed apart in the source
# [4] = LLD solubility in NMP and in aqueous povidone; type: physicochemical
# Experimental: These materials conform to a like-dissolves-like solubility. Acetonitrile was also evaluated as a polar aprotic solvent to assess solubility. Organic volatile solvents were assessed, not to include them into formulation approach for parenteral use, but to ascertain the potential solubility parameter requirements to solubilize the API.
# Further, the polymer chain of povidone has specific hydrogen bonding affinity which provides enhanced solubility and protection of the primary amine of lenalidomide, which is most susceptible to oxidation.
# Dissolution is usually complete within approximately 15 minutes for volumes of approximately 20 mL. It should be appreciated, however, that larger scale production may require longer dissolution times.
# [5] = Compatibility of lenalidomide with sodium metabisulfite antioxidant; type: physicochemical
# [6] = polar aprotic solvent in combination with PVP, in presence of water
compound,measurement,setting,value
"Nc1cccc2c1CN(C1CCC(=O)NC1=O)C2=O (stereo not drawn) [LLD, 3-(4-amino-1-3-dihydro-1-oxo-2H-isoindol-2yl)-2,6-piperidinedione]",Total Related Substances by peak area,[1]; T0 upon preparation in standard solutions or formulations,> 1.5%
same,Total Related Substances,[1]; after 48 hours at ICH storage conditions,> 2.5%
same,Total Related Substances,"[1]; after 48 hours, higher pH ranges such as pH 7.0 PBS",> 10%
same,LLD degraded,"[2]; 1% PEG400, basic hydrolysis, FIG. 13",100%
same,LLD degraded,"[2]; 1% PG, basic hydrolysis, FIG. 14",100%
same,Degradation of LLD,"[2]; 1% PVP K-12, basic hydrolysis, FIG. 15",100%
same,Total related impurities,[2]; below pH 4.5,negligible total related impurities
same,Hydrolytic degradation mitigated,[2]; [6],> 90%
same,Oxidation mitigated,[2]; [6],~100%
same,Loss of LLD,"[2]; presence of ACN, basic hydrolysis, FIG. 8",100%
same,Loss of LLD,"[2]; presence of IPA, basic hydrolysis, FIG. 7",100%
same,Solubility of the LLD in solution,[3],< 0.4 mg/mL
same,solubility,"[3]; pH about 6.0 to about 7.0, dependent on storage conditions",about 0.2 mg/mL
same,solubility,[3]; physiologically acceptable pH about 3 to about 8,no more than 0.4 mg/mL
same,Saturation point of LLD in NMP,[4]; NMP,approximately 30%
same,Solubility in NMP,[4]; NMP,approximately 30 % by weight
same,solubility,"[4]; NMP (n-methyl-2-pyrrolidone), organic solvent or mixture, read-out: Solubility in NMP",~300000 µg/mL
same,Improvement of aqueous solubility by aqueous povidone solvent,[4]; aqueous povidone,2-3 fold
same,solubility,"[4]; aqueous povidone, aqueous with cosolvent or surfactant or cyclodextrin, with povidone, read-out: Aqueous solubility",≤ 800 µg/mL
same,solubility,"[4]; aqueous, without povidone, read-out: Aqueous solubility",~200 µg/mL
same,Interaction with sodium metabisulfite as an antioxidant,[5],direct interaction with lenalidomide
